Reference: patent US10906899B2, “Bicyclic fused pyrazole derivatives for the treatment of RSV” (GEORGIA STATE UNIVERSITY RESEARCH FOUNDATION, INC., priority 2016, dated 2021)

system: RSV; assay: Dose-response counterscreen: luciferase reporter virus infection of BEAS-2B cells (EC50); assay type: cell-based, respiratory syncytial virus (RSV); settings: human respiratory syncytial virus, A series compounds, anti-RSV potency, read-out: Potency Range (EC50 values)

| SMILES | EC50 [nM] |
| --- | --- |
| COc1ccc(C2CC(=O)Nc3nn(-c4ccccc4)cc32)cc1OC1CCCC1 (stereo not drawn) [AVG-065b] | 1000 to 10000 |

same assay, conditions: human respiratory syncytial virus, B series compounds, read-out: Potency Range (EC50 values)

| SMILES | EC50 [nM] |
| --- | --- |
| Cc1c2c(=O)n(-c3nc4ccccc4s3)n(Cc3ccccc3)c2cc(=O)n1CC1CCC(=O)N1 (stereo not drawn) [AVG-213] | 1000 to 10000 |
| COc1cccc(Cn2c(C)c3c(=O)n(-c4nc5ccccc5s4)n(Cc4ccccc4)c3cc2=O)n1 [AVG-158] | 100 to 1000 |
| Cc1c2c(=O)n(-c3ccccn3)n(Cc3ccc(OC(C)C)cc3)c2cc(=O)n1Cc1cccc(Cl)n1 [AVG-234] | 100 to 1000 |
| Cc1c2c(=O)n(-c3nc4ccccc4s3)n(Cc3ccccc3)c2cc(=O)n1Cc1cnccn1 [AVG-093] | 100 to 1000 |
| Cc1c2c(=O)n(-c3nc4ccccc4s3)n(Cc3ccccc3)c2cc(=O)n1CCN1CCOCC1 [AVG-028] | 1000 to 10000 |
| COc1cc(C2CC(=O)Nc3c2c(OS(=O)(=O)C(F)(F)F)nn3-c2nc3ccccc3s2)ccc1OC1CCCC1 (stereo not drawn) [AVG-257, 1-(benzo[d]thiazol-2-yl)-4-(4-(cyclopentyloxy)-3-methoxyphenyl)-6-oxo-4,5,6,7-tetrahydro-1H-pyrazolo[3,4-b]pyridin-3-yl trifluoromethanesulfonate] | 10000 to 20000 |
| Cc1c2c(=O)n(-c3cccnc3)n(Cc3ccccc3)c2cc(=O)n1Cc1ccco1 [AVG-081] | 10000 to 20000 |
| Cc1c2c(=O)n(-c3ccccn3)n(Cc3ccccc3)c2cc(=O)n1Cc1ccc(F)cc1 [AVG-129] | 100 to 1000 |
| Cc1c2c(=O)n(-c3nc4ccccc4s3)n(Cc3ccccc3)c2cc(=O)n1Cc1cccc(C(F)(F)F)n1 [AVG-201] | 100 to 1000 |
| COc1ccc(Cn2c3cc(=O)n(Cc4cccc(OC)n4)c(C)c3c(=O)n2-c2ccccn2)cc1 [AVG-232] | 10 to 100 |
| COc1ccc(Cn2c3cc(=O)n(Cc4cccc(OC)n4)c(C)c3c(=O)n2-c2nc3ccccc3s2)cc1 [AVG-231] | 10 to 100 |
| Cc1c2c(=O)n(-c3nc4ccccc4s3)n(C)c2cc(=O)n1Cc1ccco1 [AVG-023] | > 20000 |
| Cc1c2c(=O)n(-c3nc4cc(Cl)ccc4s3)n(Cc3ccccc3)c2cc(=O)n1Cc1cccc(Cl)n1 [AVG-184] | 1000 to 10000 |
| Cc1c2c(=O)n(-c3nc4ccccc4s3)n(Cc3ccccc3)c2cc(=O)n1Cc1ccn(C)n1 [AVG-103] | 1000 to 10000 |
| Cc1c2c(=O)n(-c3nc4ccccc4s3)n(Cc3ncco3)c2cc(=O)n1Cc1ccco1 [AVG-124] | 1000 to 10000 |
| Cc1c2c(=O)n(-c3nc4ccccc4s3)n(C)c2cc(=O)n1Cc1ccccn1 [AVG-037] | > 20000 |
| Cc1c2c(=O)n(-c3nc4ccccc4s3)n(Cc3cnco3)c2cc(=O)n1Cc1ccco1 [AVG-126] | 1000 to 10000 |
| Cc1c2c(=O)n(-c3nc4ccccc4s3)n(Cc3cccc(Cl)c3)c2cc(=O)n1Cc1cccc(Cl)n1 [AVG-174] | 1000 to 10000 |
| Cc1c2c(=O)n(-c3nc4cccnc4s3)n(Cc3ccccc3)c2cc(=O)n1Cc1cccc(Cl)n1 [AVG-198] | 100 to 1000 |
| CCOc1cccc(Cn2c(C)c3c(=O)n(-c4nc5ccccc5s4)n(Cc4ccccc4)c3cc2=O)n1 [AVG-204] | 100 to 1000 |
| Cc1c2c(=O)n(-c3ccccn3)n(Cc3ccccc3)c2cc(=O)n1Cc1cccc(OC(C)C)n1 [AVG-230] | 100 to 1000 |
| COc1ccccc1Cn1c(C)c2c(=O)n(-c3ccccn3)n(Cc3ccccc3)c2cc1=O [AVG-133] | 100 to 1000 |
| Cc1c2c(=O)n(-c3nc4cnccc4s3)n(Cc3ccccc3)c2cc(=O)n1Cc1cccc(Cl)n1 [AVG-196] | 10000 to 20000 |
| Cc1c2c(=O)n(-c3nc4ccccc4s3)n(Cc3ccccn3)c2cc(=O)n1Cc1ccco1 [AVG-119] | 1000 to 10000 |
| Cc1c2c(=O)n(-c3nc4ccccc4s3)n(Cc3ccccc3)c2cc(=O)n1Cc1cccc(N2CCN(C)CC2)n1 [AVG-225] | 100 to 1000 |
| Cc1c2c(=O)n(-c3nc4ccccc4s3)n(Cc3ccccc3)c2cc(=O)n1CC1CCC(=O)N1C (stereo not drawn) [AVG-212] | 10000 to 20000 |
| CC(C)c1c2c(=O)n(-c3nc4ccccc4s3)n(Cc3ccccc3)c2cc(=O)n1Cc1cccc(Cl)n1 [AVG-166] | 1000 to 10000 |
| Cc1c2c(=O)n(-c3ccccn3)n(Cc3ccccc3)c2cc(=O)n1Cc1ccccn1 [AVG-104] | 1000 to 10000 |
| Cc1ccc2sc(-n3c(=O)c4c(C)n(Cc5cccc(Cl)n5)c(=O)cc4n3Cc3ccccc3)nc2c1 [AVG-192] | 100 to 1000 |
